IC50 data for 34 molecules are collected here from patent US20130040935A1, “CYCLIC KETO-ENOLS FOR THERAPY” (BAYER INTELLECTUAL PROPERTY GMBH, priority 2010, published 2013).

Read-outs that look alike come from different tables or passages of the source.

The term IC50 denotes the concentration needed to halve the response being measured.

For assay [1], the target named is T1, human ACC1 (acetyl-coenzyme A carboxylase alpha transcript variant 1) (Homo sapiens, UniProt Q13085).
T1 construct: FLAG (C); made in house; host or cells: baculovirus-infected insect cells (Hi5)
In words: Human ACC1 enzyme assay, Assay B1 (ADP-Glo). The assay is classed as biochemical. A general note: ADP-Glo turns the ADP formed in a reaction into a luminescent signal.

The target of assay [2] is human ACC2 (acetyl-coenzyme A carboxylase 2) (Homo sapiens, UniProt O00763). In words: Human ACC2 enzyme assay, Assay B2 (ADP-Glo).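 Also: human ACC2 activity read as ADP product, detected by luciferase glow luminescence after residual ATP removal, enzyme near 2 ng/µl in linear range, detection steps at 22 °C.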
Description: The hACC2-inhibitory action of the substances of the present invention was measured in the hACC2 assay described in the paragraphs below.
Essentially, the enzyme activity is measured by quantifying the adenosine diphosphate (ADP) formed as a byproduct of the enzyme reactions using the ADP-Glo™ detection system from Promega. In this test, initially the adenosine triphosphate (ATP) not consumed in the enzyme reaction is converted quantitatively with an adenylate cyclase (“ADP-GLO reagent”) into cAMP, the adenylate cyclase is then stopped and (“kinase detection reagent”) the ADP formed is subsequently converted into ATP, which is converted in a luciferase-based reaction into a glow luminescence signal.
The concentration of the hACC2 was adapted to the respective activity of the enzyme and adjusted such that the assay operated in the linear range. Typical concentrations were in the range of 2 ng/μl. […] The amount of light emitted was taken as a measure for the amount of ADP formed and thus for the enzyme activity of the hACC2.
The mark [3] stands for this setting: Assay B1, read-out: ACC 1 (=B1) IC50.
The mark [4] stands for this setting: Assay B1, ADP-Glo, read-out: ACC 1 (=B1) IC50.

Chain of human ACC2 (acetyl-coenzyme A carboxylase 2) (O00763 27-2458 limits assumed): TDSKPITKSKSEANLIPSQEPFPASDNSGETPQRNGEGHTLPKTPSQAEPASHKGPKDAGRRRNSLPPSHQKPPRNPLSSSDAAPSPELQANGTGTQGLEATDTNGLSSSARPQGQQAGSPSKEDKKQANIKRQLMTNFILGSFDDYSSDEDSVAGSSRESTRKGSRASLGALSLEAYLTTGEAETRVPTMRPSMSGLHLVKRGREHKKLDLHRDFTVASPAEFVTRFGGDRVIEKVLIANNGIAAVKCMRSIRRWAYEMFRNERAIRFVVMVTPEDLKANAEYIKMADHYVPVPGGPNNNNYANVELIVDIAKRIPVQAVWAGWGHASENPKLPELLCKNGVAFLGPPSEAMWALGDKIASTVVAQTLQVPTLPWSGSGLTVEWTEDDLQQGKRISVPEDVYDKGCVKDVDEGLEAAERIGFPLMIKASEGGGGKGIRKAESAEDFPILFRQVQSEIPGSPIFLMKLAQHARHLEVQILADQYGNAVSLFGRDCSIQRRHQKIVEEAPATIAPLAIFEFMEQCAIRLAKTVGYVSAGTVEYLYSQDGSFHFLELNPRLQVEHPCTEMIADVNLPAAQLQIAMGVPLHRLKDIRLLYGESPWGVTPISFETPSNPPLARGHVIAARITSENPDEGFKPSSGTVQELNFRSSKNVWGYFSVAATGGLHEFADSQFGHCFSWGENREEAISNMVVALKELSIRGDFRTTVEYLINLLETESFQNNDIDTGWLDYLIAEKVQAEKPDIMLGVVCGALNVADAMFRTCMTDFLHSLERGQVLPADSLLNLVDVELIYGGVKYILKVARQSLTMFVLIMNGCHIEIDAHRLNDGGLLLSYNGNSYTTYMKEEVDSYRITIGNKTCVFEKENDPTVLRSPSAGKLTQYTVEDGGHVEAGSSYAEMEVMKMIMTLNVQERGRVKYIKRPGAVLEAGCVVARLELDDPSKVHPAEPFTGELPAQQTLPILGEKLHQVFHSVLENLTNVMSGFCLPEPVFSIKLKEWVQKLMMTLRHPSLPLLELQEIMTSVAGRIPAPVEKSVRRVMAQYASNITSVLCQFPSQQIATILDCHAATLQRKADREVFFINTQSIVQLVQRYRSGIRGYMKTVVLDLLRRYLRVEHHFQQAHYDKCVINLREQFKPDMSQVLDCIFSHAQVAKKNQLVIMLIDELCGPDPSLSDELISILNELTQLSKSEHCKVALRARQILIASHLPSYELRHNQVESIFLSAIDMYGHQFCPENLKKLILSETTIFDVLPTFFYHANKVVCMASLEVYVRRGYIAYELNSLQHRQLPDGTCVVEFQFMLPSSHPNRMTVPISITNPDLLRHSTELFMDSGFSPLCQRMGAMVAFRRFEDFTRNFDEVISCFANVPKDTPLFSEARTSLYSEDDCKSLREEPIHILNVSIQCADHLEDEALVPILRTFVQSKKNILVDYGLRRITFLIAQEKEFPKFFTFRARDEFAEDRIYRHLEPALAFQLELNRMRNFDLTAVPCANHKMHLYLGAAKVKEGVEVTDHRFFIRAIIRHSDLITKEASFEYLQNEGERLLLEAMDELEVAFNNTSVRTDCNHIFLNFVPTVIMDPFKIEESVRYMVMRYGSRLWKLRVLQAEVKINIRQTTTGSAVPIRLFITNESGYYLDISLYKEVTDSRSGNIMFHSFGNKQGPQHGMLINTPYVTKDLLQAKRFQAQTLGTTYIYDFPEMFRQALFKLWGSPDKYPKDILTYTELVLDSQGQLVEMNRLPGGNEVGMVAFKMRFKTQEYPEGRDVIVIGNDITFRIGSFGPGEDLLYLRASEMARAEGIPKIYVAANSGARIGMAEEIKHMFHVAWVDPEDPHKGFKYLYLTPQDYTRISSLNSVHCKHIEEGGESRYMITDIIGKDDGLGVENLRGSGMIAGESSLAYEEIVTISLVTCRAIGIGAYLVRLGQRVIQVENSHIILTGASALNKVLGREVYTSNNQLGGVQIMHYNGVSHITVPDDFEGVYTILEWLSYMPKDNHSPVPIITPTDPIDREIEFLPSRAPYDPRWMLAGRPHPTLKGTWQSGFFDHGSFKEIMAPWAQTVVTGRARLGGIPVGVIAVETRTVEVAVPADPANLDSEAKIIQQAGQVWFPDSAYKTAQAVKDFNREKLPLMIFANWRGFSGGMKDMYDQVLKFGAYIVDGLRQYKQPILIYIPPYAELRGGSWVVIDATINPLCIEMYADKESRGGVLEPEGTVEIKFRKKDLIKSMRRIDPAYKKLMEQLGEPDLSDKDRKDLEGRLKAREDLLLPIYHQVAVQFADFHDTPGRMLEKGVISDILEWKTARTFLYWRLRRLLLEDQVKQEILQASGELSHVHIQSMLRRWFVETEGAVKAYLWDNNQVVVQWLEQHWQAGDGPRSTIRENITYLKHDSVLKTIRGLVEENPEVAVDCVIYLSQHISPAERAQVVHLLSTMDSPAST

Consider `Cc1ccc(-c2ccc(Cl)cc2)cc1C1=C(O)C2(CCC3(CC2)OCC(C)CO3)NC1=O` (centres unmarked) [1-66, 3-(4′-chloro-4-methylbiphenyl-3-yl)-4-hydroxy-11-methyl-9,13-dioxa-1-azadispiro[4.2.5.2]pentadec-3-en-2-one], for which the IC50 in assay [1] is 0.493 µM; in assay [2], 3.13 µM.

For `CCOCCO[C@@H]1CC[C@@]2(C1)NC(=O)C(c1cc(-c3ccc(Cl)cc3)ccc1C)=C2O` (relative stereo) [1-50, rel-(5R,7S)-3-(4′-chloro-4-methylbiphenyl-3-yl)-7-(2-ethoxyethoxy)-4-hydroxy-1-azaspiro[4.4]non-3-en-2-one], the IC50 in assay [1] (setting [3]) was 11.8 µM; in assay [2], over 20 µM.

`Cc1ccc(-c2ccc(Cl)cc2)cc1C1=C(O)C2(Cc3ccccc3C2)NC1=O` [1-25, 4′-(4′-chloro-4-methylbiphenyl-3-yl)-3′-hydroxy-1,3-dihydrospiro[inden-2,2′-pyrrol]-5′(1′H)-one]: the IC50 in assay [1] (setting [3]) is 0.288 µM; in assay [2], 3.78 µM.

For `O=C1NC2(CCC3(CC2)OCCO3)C(O)=C1c1cc(-c2ccc(Cl)cc2)ccc1Cl` [1-61, 11-(4,4′-dichlorobiphenyl-3-yl)-12-hydroxy-1,4-dioxa-9-azadispiro[4.2.4.2]tetradec-11-en-10-one], the IC50 in assay [1] was found to be 0.088 µM; in assay [2], 9.04 µM.

Turning to `Cc1ccc(-c2ccc(Cl)cc2)c(C)c1C1C(=O)N2CCOCCN2C1=O` [8-8, 8-(4′-chloro-2,4-dimethylbiphenyl-3-yl)tetrahydro-7H-pyrazolo[1,2-d][1,4,5]oxadiazepine-7,9(8H)-dione], the IC50 was 1.31 µM in assay [1] and over 20 µM in assay [2].

As to `Cc1ccc(-c2cccc(Cl)c2)cc1C1=C(O)C2(CCCCC2)CC1=O` [6-3, 3-(3′-chloro-4-methylbiphenyl-3-yl)-4-hydroxyspiro[4.5]dec-3-en-2-one], the IC50 was 1.17 µM in assay [1] (setting [3]) and over 20 µM in assay [2].

As to `Cc1ccc(-c2ccc(Cl)cc2)cc1C1=C(O)C2(CCCC2)NC1=O` [1-85, 3-(4′-chloro-4-methylbiphenyl-3-yl)-4-hydroxy-1-azaspiro[4.4]non-3-en-2-one], the IC50 was 0.251 µM in assay [1] (setting [3]) and 9.21 µM in assay [2].

As for `Cc1ccc(-c2ccc(Cl)cc2)cc1C1=C(O)C2(CCC3(CC2)OCCCO3)NC1=O` [1-59, 3-(4′-chloro-4-methylbiphenyl-3-yl)-4-hydroxy-9,13-dioxa-1-azadispiro[4.2.5.2]pentadec-3-en-2-one], the IC50 was found to be 0.261 µM in assay [1] and 11.6 µM in assay [2].

Consider `COC1CCC2(CC1)SC(=O)C(c1cc(-c3ccc(Cl)cc3)ccc1C)=C2O` (centres unmarked) [3-1, 3-(4′-chloro-4-methylbiphenyl-3-yl)-4-hydroxy-8-methoxy-1-thiaspiro[4.5]dec-3-en-2-one], for which the IC50 in assay [1] turned out to be 1.41 µM; in assay [2] it was 15.5 µM.

As to `CCCC1CCC2(CC1)OC(=O)C(c1cc(-c3ccc(Cl)cc3)ccc1C)=C2O` (centres unmarked) [2-36, 3-(4′-chloro-4-methylbiphenyl-3-yl)-4-hydroxy-8-propyl-1-oxaspiro[4.5]dec-3-en-2-one], the values for the IC50 in assay [1] and in assay [2] were 0.447 µM and 2.41 µM, respectively.

Consider `Cc1ccc(-c2ccc(Cl)cc2)cc1C1=C(O)C(C)N(C(C)C)C1=O` (centres unmarked) [1-19, 3-(4′-chloro-4-methylbiphenyl-3-yl)-4-hydroxy-5-methyl-1-(propan-2-yl)-1,5-dihydro-2H-pyrrol-2-one], for which the figures for the IC50 in assay [1] (setting [3]) and in assay [2] were 0.532 µM and at least 20 µM, respectively.

Take `COC1CCC2(CC1)OC(=O)C(c1cc(-c3ccc(Cl)cc3)ccc1C)=C2O` (centres unmarked) [2-39, 3-(4′-chloro-4-methylbiphenyl-3-yl)-4-hydroxy-8-methoxy-1-oxaspiro[4.5]dec-3-en-2-one]: the IC50 stood at 0.162 µM in assay [1] (setting [4]) and 5.27 µM in assay [2].

Regarding `Cc1ccc(-c2ccc(F)cc2)c(C)c1C1=C(O)C2(CCC(OCC(F)(F)F)CC2)NC1=O` (centres unmarked) [1-31, 3-(4′-fluoro-2,4-dimethylbiphenyl-3-yl)-4-hydroxy-8-(2,2,2-trifluoroethoxy)-1-azaspiro[4.5]dec-3-en-2-one], the values for the IC50 in assay [1] and in assay [2] were 0.811 µM and 7.89 µM, respectively.

`CC[C@]1(OC)CC[C@@]2(CC1)NC(=O)C(c1c(C)ccc(-c3ccc(F)cc3)c1C)=C2O` [1-89, (5r,8r)-8-ethyl-3-(4′-fluoro-2,4-dimethylbiphenyl-3-yl)-4-hydroxy-8-methoxy-1-azaspiro[4.5]dec-3-en-2-one]: the results for the IC50 in assay [1] and in assay [2] were 2.07 µM and 13.6 µM, respectively.

Molecule `COC1CCC2(CC1)NC(=O)C(c1cc(-c3ccc(Cl)c(Cl)c3)ccc1C)=C2O` (centres unmarked) [1-81, 3-(3′,4′-dichloro-4-methylbiphenyl-3-yl)-4-hydroxy-8-methoxy-1-azaspiro[4.5]dec-3-en-2-one] displayed an IC50 in assay [2] of 2.61 µM.

As for `Cc1ccc(-c2ccc(Cl)cc2)cc1C1=C(O)C2(CC2)NC1=O` [1-84, 6-(4′-chloro-4-methylbiphenyl-3-yl)-7-hydroxy-4-azaspiro[2.4]hept-6-en-5-one], the IC50 in assay [1] (setting [3]) is 0.65 µM; in assay [2] it was over 20 µM.

For the molecule `Cc1ccc(-c2ccc(F)cc2)c(C)c1C1=C(O)C2(CCCCC2)NC1=O` [1-40, 3-(4′-fluoro-2,4-dimethylbiphenyl-3-yl)-4-hydroxy-1-azaspiro[4.5]dec-3-en-2-one], the results for the IC50 in assay [1] (setting [3]) and in assay [2] were 1.32 µM and over 20 µM, respectively.

Turning to `CC1COC2(CCC3(CC2)NC(=O)C(c2cc(-c4ccc(Cl)cc4)ccc2Cl)=C3O)OC1` (centres unmarked) [1-69, 3-(4,4′-dichlorobiphenyl-3-yl)-4-hydroxy-11-methyl-9,13-dioxa-1-azadispiro[4.2.5.2]pentadec-3-en-2-one], the IC50 was 0.838 µM in assay [1] (setting [3]) and over 20 µM in assay [2].

Take `COC1CCCC2(C1)OC(=O)C(c1cc(-c3ccc(Cl)cc3)c(C)cc1C)=C2O` (centres unmarked) [2-11, 3-(4′-chloro-4,6-dimethylbiphenyl-3-yl)-4-hydroxy-7-methoxy-1-oxaspiro[4.5]dec-3-en-2-one]: the IC50 in assay [1] (setting [4]) is 1.26 µM; in assay [2] it was 12.4 µM.

As to `COCCO[C@@H]1CCC[C@]2(C1)NC(=O)C(c1cc(-c3ccc(Cl)cc3)ccc1Cl)=C2O` (relative stereo) [1-74, rel-(5R,7R)-3-(4,4′-dichlorobiphenyl-3-yl)-4-hydroxy-7-(2-methoxyethoxy)-1-azaspiro[4.5]dec-3-en-2-one], the figures for the IC50 in assay [1] and in assay [2] were 2.42 µM and over 20 µM, respectively.

As for `Cc1ccc(-c2ccc(Cl)cc2)cc1C1=C(O)C2(CCC3(CC2)OCCO3)OC1=O` [2-15, 11-(4′-chloro-4-methylbiphenyl-3-yl)-12-hydroxy-1,4,9-trioxadispiro[4.2.4.2]tetradec-11-en-10-one], the figures for the IC50 in assay [1] (setting [4]) and in assay [2] were 0.111 µM and 8.02 µM, respectively.

Regarding `COCCC1CCCC2(C1)OC(=O)C(c1cc(-c3ccc(Cl)cc3)ccc1Cl)=C2O` (centres unmarked) [2-19, 3-(4,4′-dichlorobiphenyl-3-yl)-4-hydroxy-7-(2 methoxyethyl)-1-oxaspiro[4.5]dec-3-en-2-one], the figures for the IC50 in assay [1] (setting [4]) and in assay [2] were 0.812 µM and 13.6 µM, respectively.

On to `COCC1(C)NC(=O)C(c2cc(-c3ccc(Cl)cc3)ccc2C)=C1O` (centres unmarked) [1-46, 3-(4′-chloro-4-methylbiphenyl-3-yl)-4-hydroxy-5-(methoxymethyl)-5-methyl-1,5-dihydro-2H-pyrrol-2-one], for which the IC50 in assay [1] was 1.13 µM; in assay [2], over 20 µM.

In the case of `CCC1CCC2(CC1)OC(=O)C(c1cc(-c3ccc(Cl)cc3)ccc1C)=C2O` (centres unmarked) [2-1, 3-(4′-chloro-4-methylbiphenyl-3-yl)-8-ethyl-4-hydroxy-1-oxaspiro[4.5]dec-3-en-2-one], the IC50 is 1.14 µM in assay [1] (setting [4]) and 15.2 µM in assay [2].

`Cc1ccc(-c2ccc(Cl)cc2)cc1C1=C(O)C2(CCCC(C)C2)NC1=O` (centres unmarked) [1-82, 3-(4′-chloro-4-methylbiphenyl-3-yl)-4-hydroxy-7-methyl-1-azaspiro[4.5]dec-3-en-2-one]: the IC50 is 0.539 µM in assay [1] (setting [3]) and 1.32 µM in assay [2].

On to `COCC1CCC2(CC1)OC(=O)C(c1cc(-c3ccc(Cl)cc3)ccc1Cl)=C2O` (centres unmarked) [2-16, 3-(4,4′-dichlorobiphenyl-3-yl)-4-hydroxy-8-(methoxymethyl)-1-oxaspiro[4.5]dec-3-en-2-one], for which the IC50 in assay [1] amounted to 0.138 µM; in assay [2], 5.31 µM.

Regarding `Cc1ccc(-c2ccc(Cl)cc2)cc1C1C(=O)N(C)N(C)C1=O` [8-14, 4-(4′-chloro-4-methylbiphenyl-3-yl)-1,2-dimethyl-1H-pyrazole-3,5(2H,4H)-dione], the IC50 in assay [1] (setting [3]) came to 7.46 µM.

As to `O=C1NC2(CCOCC2)C(O)=C1c1cc(-c2ccc(F)cc2)ccc1Cl` [1-41, 3-(4-chloro-4′-fluorobiphenyl-3-yl)-4-hydroxy-8-oxa-1-azaspiro[4.5]dec-3-en-2-one], the IC50 in assay [1] (setting [3]) worked out at 1.14 µM.

`Cc1ccc(-c2ccc(Cl)cc2)cc1C1=C(O)C2(CC2)OC1=O` [2-8, 6-(4′-chloro-4-methylbiphenyl-3-yl)-7-hydroxy-4-oxaspiro[2.4]hept-6-en-5-one]: the IC50 in assay [1] (setting [4]) turned out to be 1.99 µM.

Turning to `Cc1ccc(-c2ccc(C(F)(F)F)cc2)cc1-c1c(O)c2ccc(F)cc2[nH]c1=O` [9-10], in assay [1] (setting [3]), the IC50 was 1.41 µM.

Consider `COC1CCC2(CC1)NC(=O)C(c1cc(-c3cc(F)ccc3F)ccc1C)=C2O` (centres unmarked) [1-80, 3-(2′,5′-difluoro-4-methylbiphenyl-3-yl)-4-hydroxy-8-methoxy-1-azaspiro[4.5]dec-3-en-2-one], for which half-maximal inhibition in assay [1] (IC50) required 2.18 µM.

Turning to `CC1(F)CN2C(=O)C(c3cc(-c4ccc(Cl)cc4)ccc3Cl)C(=O)N2C1` [8-13, 2-(4,4′-dichlorobiphenyl-3-yl)-6-fluoro-6-methyldihydro-1H,5H-pyrazolo[1,2-a]pyrazole-1,3(2H)-dione], the IC50 in assay [1] (setting [3]) stood at 1.36 µM.

On to `O=C1NC2(CCOCC2)C(O)=C1c1cc(-c2cc(F)c(F)c(F)c2)ccc1Cl` [1-38, 3-(4-chloro-3′,4′,5′-trifluorobiphenyl-3-yl)-4-hydroxy-8-oxa-1-azaspiro[4.5]dec-3-en-2-one], for which, in assay [1] (setting [3]), the IC50 was determined as 0.747 µM.

Molecule `CC1OC2(CCC3(CC2)NC(=O)C(c2cc(-c4ccc(Cl)cc4)ccc2Cl)=C3O)OC1C` (centres unmarked) [1-71, 11-(4,4′-dichlorobiphenyl-3-yl)-12-hydroxy-2,3-dimethyl-1,4-dioxa-9-azadispiro[4.2.4.2]tetradec-11-en-10-one] came in with an IC50 in assay [1] of 0.912 µM.
